# Assay results as given in patent US4157392A, “Pharmacologically active substituted 1,2,4-triazines” (Diamond Shamrock Corporation, priority 1978, dated 1979).
# Read-outs that look alike come from different tables or passages of the source.
# Legend:
# [1] = tested on: phenylquinone writhing in mice; test: Phenylquinone Writhing Assay (analgesia); type: in vivo, mouse (Carworth CF1 male mice); details: Mus musculus, po, read-out: Phenylquinone Writhing Assay (% Control), percent analgesia; for responders at 100 mg/kg: 100 mg/kg oral; for responders at 30 mg/kg: 30 mg/kg oral; for responders at 50 mg/kg: 50 mg/kg oral; for responders at 25 mg/kg: 25 mg/kg oral
# Method: The phenylquinone writhing test was employed to evaluate analgesic activity according to the following procedure:
# Phenylquinone (phenyl-p-benzoquinone, No. 7104, Eastman Organic Chemicals) is made up as a 0.02% aqueous solution in 5% ethyl alcohol. Phenylquinone solutions are made up fresh twice daily. Standard reference agents and the test compounds are dissolved or suspended in a 0.25% methylcellulose solution. A control group consisting of ten mice (Carworth CF1 male mice) are administered the 0.02% phenylquinone solution at a dose of 0.25 ml/mouse. The mice are housed individually and observed closely for ten minutes for exhibition of writhing. The onset of writhing occurs within three minutes and 100% of the mice must writhe within ten minutes. Test compounds are administered orally to groups of ten mice. The volume given is 0.01 ml/gram of body weight. Activity can be studied at 15, 30, 60, and 120 minutes after oral administration. After the designated time interval of a dose group has elapsed, the mice are challenged with phenylquinone intraperitoneally. Complete blocking of the writhing syndrom for the ten minute observation period in any one mouse is considered a positive analgesic response for that mouse. Conversely, if any mouse writhes definitely once it is considered not to be protected. The number of mice not writhing in group multiplied by ten equals percent analgesia for that dose at that time interval.
# [2] = tested on: carrageenin-induced edema in the hind paw of a rat; test: Carrageenin Assay (carrageenin-induced edema, hind paw); type: in vivo, rat (male, Long Evans strain); details: Rattus norvegicus, 1 h before carrageenin, edema at 3 h, compared to phenylbutazone control values, read-out: % Reduction of Edema; for inhibition in vivo at 200 mg/kg: 200 mg/kg oral
# Method: The procedure employed is a modification of the method of Winter et al, Proc. Soc. Exptl. Biol. Med. 111:544 (1962). The device used for measurement of the paw volume is an adaptation of the water displacement procedure described by Adamkiewicz et al, Can. J. Biochem. Physiol. 33:332 (1955). Test compounds were administered orally, one hour prior to the intraplantar injection of 0.05 ml. of sterile 1.0 percent solution of carrageenin into the left hind paw of male rats (Long Evans strain) weighing between about 130-200 grams. At peak swelling time (3 hours) the volume of edema was calculated by differential paw volumes.
# Table I sets forth the results obtained (indicated as percent reduction of edema compared to phenylbutazone control values) at the indicated dosages for each of the identified compounds.
# [3] = tested on: central nervous system activity in mice; test: Neuropharmacological Profile; type: in vivo, mouse (white male Carworth Farm Strain CF-1)
# Method: The central nervous system activity of certain of the preferred compounds in accordance with the present invention were determined using the following neuropharmacological profile assay procedures.
# White male mice of the Carworth Farm Strain (CF-1) weighing 18-22 grams were used in these determinations. […] Intraperitoneal injections were administered in logarithmic progression and sequentially. The dose levels employed routinely are 10, 30, 100, and 300 mg/kg, using four male mice at each dose level. Since this test was conducted in a sequential manner, the first dose administered was at 300 mg/kg. The mice were injected at this dose level and observed for gross changes produced by the drug, such as behavioral, neurological, autonomic, and toxic effects.
# The animals were observed continuously for one hour and if no signs of pharmacological or toxicological activity were present at the end of the first hour, they were intermittently checked for activity every fifteen minutes thereafter for two consecutive hours. […] Subsequent dose levels below 300 mg/kg were not administered in this case. Alternatively, if demonstrable pharmacological changes occurred within the first three hours after administration of the drug at 300 mg/kg, the subsequent doses were administered and the animals observed for changes in overt behavior. The observation period begins immediately following the injection and the animals are then continuously observed for three hours and intermittently checked thereafter for forty-eight hours. The animals were observed and signs and symptoms of pharmacological activity were recorded continuously until no further symptoms developed and until the symptoms that had appeared were no longer present. […] It was very important that the animals were free to move about for evaluation of spacial orientation, alertness, and spontaneous motor activity. The animals were systematically observed and manipulated to measure the onset, peak effect, duration and character of drug action.
# The major characteristics observed relative to central nervous system activity for the compounds indicated are summarized in the following Table IV.
# [4] = 300,100,30 mg/kg intraperitoneal
SMILES,"responders at 100 mg/kg ([1]; 0.5 h, 30 Min.)",inhibition in vivo at 200 mg/kg [2],"responders at 100 mg/kg ([1]; 0.25 h, 15 Min.)","responders at 100 mg/kg ([1]; 1 h, 60 Min)",other results
"C=CCOc1nnc(C)c(C)n1 [Example 11, 3-allyloxy-5,6-dimethyl-1,2,4-triazine]",30%,63%,,,"CNS Activity ([3]; 300,100 mg/kg intraperitoneal): Hypnotic"
"CSc1nncc(-c2cccc(C(F)(F)F)c2)n1 [Example 19, 3-methylthio-5-(3'-trifluoromethylphenyl)-1,2,4-triazine]",,51%,,,"responders at 30 mg/kg ([1]; 0.5 h, 30 Min.): 20%; CNS Activity ([3]; 300,100,30,10,3 mg/kg intraperitoneal): Sedative"
"OCCNc1nncc(-c2ccccc2)n1 [Example 28, 3-B-hydroxyethyl amino-5-phenyl-1,2,4-triazine]",10%,43%,30%,10%,
"COc1nncc(-c2cccc3ccccc23)n1 [Example 29, 3-methoxy-5-(1'-naphthyl)-1,2,4-triazine]",,22%,10%,,"responders at 30 mg/kg ([1]; 0.25 h, 15 Min.): 10%; responders at 50 mg/kg ([1]; 0.5 h, 30 Min.): 10%"
"CCCOc1nncc(-c2ccccc2)n1 [Example 31, 3-n-propoxy-5-phenyl-1,2,4-triazine]",,51%,10%,,
"COc1cc(-c2cnnc(SC)n2)ccc1O [Example 32, 3-methylthio-5-(3'-methoxy-4'-hydroxyphenyl)-1,2,4-triazine]",10%,5%,30%,10%,
"CSc1nncc(C23CC4CC(CC(C4)C2)C3)n1 [Example 34, 3-methylthio-5-(1'-adamantyl)-1,2,4-triazine]",10%,17%,30%,,
"CSc1nncc(-c2cc3ccccc3o2)n1 [Example 35, 3-methylthio-5-(2'-benzofuryl)-1,2,4-triazine]",10%,2%,10%,10%,
"CSc1nncc(C2CC2)n1 [Example 37, 3-methylthio-5-cyclopropyl-1,2,4-triazine]",,86%,20%,,
"COc1nncc(-c2ccc(OC)c(OC)c2)n1 [Example 38, 3-methoxy-5-(3',4'-dimethoxyphenyl)-1,2,4-triazine]",20%,52%,,10%,
"CSc1nncc(-c2c(C)cc(C)cc2C)n1 [Example 39, 3-methylthio-5-(2',4',6'-trimethylphenyl)-1,2,4-triazine]",,7%,10%,10%,
"CSc1nncc(-c2ccc(N3CCOCC3)cc2)n1 [Example 40, 3-methylthio-5-(4'-morpholinophenyl)-1,2,4-triazine]",10%,19%,30%,,
"CSc1nncc(-c2ccc(F)cc2F)n1 [Example 42, 3-methylthio-5-(2',4'-difluorophenyl)-1,2,4-triazine]",10%,,20%,,inhibition in vivo at 150 mg/kg ([2]; 150 mg/kg oral): 10%
"CSc1nncc(-c2ccc(Br)cc2)n1 [Example 43, 3-methylthio-5-(4'-bromophenyl)-1,2,4-triazine]",10%,20%,10%,10%,
"COc1ccc(-c2cnnc(SC)n2)cc1 [Example 44, 3-methylthio-5-(4'-methoxyphenyl)-1,2,4-triazine]",10%,18%,10%,20%,
"COc1nnc(-c2ccccc2)c(-c2ccccc2)n1 [Example 48, 3-methoxy-5,6-diphenyl-1,2,4-triazine]",,17%,,,"CNS Activity [3, 4]: Muscle Relaxant"
"COc1ccc(-c2nnc(N(C)CCO)nc2-c2ccc(OC)cc2)cc1 [Example 50, 3-(N-methyl-N-(B-hydroxyethyl)amino)-5,6-bis-(4'-methoxyphenyl)-1,2,4-triazine]",100%,67%,70%,80%,"responders at 25 mg/kg ([1]; 0.25 h, 15 Min.): 30%; responders at 50 mg/kg ([1]; 0.25 h, 15 Min.): 60%; responders at 25 mg/kg ([1]; 0.5 h, 30 Min.): 40%; responders at 50 mg/kg ([1]; 0.5 h, 30 Min.): 50%; responders at 25 mg/kg ([1]; 1 h, 60 Min): 20%; responders at 50 mg/kg ([1]; 1 h, 60 Min): 40%"
"C[C@@H]1CC[C@H](C)N1c1nnc(-c2ccccc2)c(-c2ccccc2)n1 [Example 52, 3-(cis-2',5'-dimethylpyrrolidyl)-5,6-diphenyl-1,2,4-triazine]",30%,22%,,10%,
"c1ccc(Oc2nnc(-c3ccccc3)c(-c3ccccc3)n2)cc1 [Example 53, 3-phenoxy-5,6-diphenyl-1,2,4-triazine]",,7%,20%,10%,
"CSc1nnc(-c2ccc(Cl)cc2)c(-c2ccc(Cl)cc2)n1 [Example 54, 3-methylthio-5,6-bis(4'-chlorophenyl)-1,2,4-triazine]",,7%,10%,,
"CN(CCO)c1nnc(-c2ccccc2)c(-c2ccccc2)n1 [Example 55, 3-(N-methyl-N-B-hydroxyethylamino)-5,6-diphenyl-1,2,4-triazine]",,23%,20%,,
"CCCCOc1nccnn1 [Example 65, 3-n-butoxy-1,2,4-triazine]",,,,,"responders at 50 mg/kg ([1]; 0.5 h, 30 Min.): 10%; CNS Activity [3, 4]: Antidepressant"
CN(CCO)c1nncc(-c2ccccc2)n1 [Example 73],,,10%,,"CNS Activity ([3]; 300,100 mg/kg intraperitoneal): Hypnotic"
"CCC(=O)NNc1nncc(-c2ccc(Cl)cc2)n1 [Example 108, 3-propionylhydrazino-5-(4'-chlorophenyl)-1,2,4-triazine]",,,,,"responders at 25 mg/kg ([1]; 0.25 h, 15 Min.): 30%; responders at 25 mg/kg ([1]; 0.5 h, 30 Min.): 50%; responders at 25 mg/kg ([1]; 1 h, 60 Min): 50%; inhibition in vivo at 100 mg/kg ([2]; 100 mg/kg oral): 40%"
